# Patent publication US9586056B2, “Combination therapy for treating cancer and method for treating cancer using a combination therapy” (Haniva LLC, priority 2014, dated 2017)
# Columns and labels:
# Assay type in all cases: cell-based
# [1] = system: 1205Lu cells; test: Photographic assessment of cell death (FIGS. 12 and 13)
# Source text: The broken lines shown in FIGS. 12 and 13 demarcate live cells from dead cells. The portions shown with asterisks represent the dead cells.
# [2] = system: 1205Lu C×43 (C); test: Number of viable cells after treatment (FIG. 11); details: normoxia; tirapazamine at 28.5 μM
# Method: (§1) The cell lines shown in FIG. 11 include: 1205Lu plasmid (P), 1205Lu […]), 1205Lu-[…] (T). […] The cells were treated with non-thermal plasma (NTP), tirapazamine at 28.5 μM (TPZ), or the combination (NTP/TPZ). […] (T) but not for 1205Lu plasmid (P). […] Under […], all treatments (NTP, TPZ and NTP/TPZ) cause a decrease in cell number from the original number of cells (6×10^6) to approximately (3×10^6) for all melanoma cell lines. Under hypoxia, TPZ causes a decrease in cell number from the original number of cells (6×10^6) to approximately (1.2-0.6×10^5). Under hypoxia, NTP/TPZ causes a decrease from the original number of cells (6×10^6) to approximately (0.1-0.03×10^5). […] In addition, the target area of the NTP torch dramatically increases under these conditions. The ROS generated by NTP and tirapazamine induces the bystander effect and promotes the spreading of cell death signals well beyond the area of the plasma treatment. Upon treatment for 24 hours with NTP+/- tirapazamine at normal conditions (normoxia) or hypoxic conditions (hypoxia), the combination of NTP+/- tirapazamine enhances cell death under hypoxia. Furthermore, the area in which the plasma torch affects the cells increases only in the cells overexpressing the functional gap junctions.
# [3] = system: 1205Lu plasmid (P); test: Number of viable cells after treatment (FIG. 11); details: normoxia; tirapazamine at 28.5 μM
# Method: as §1
# [4] = system: 1205Lu-T154A (T); test: Number of viable cells after treatment (FIG. 11); details: normoxia; tirapazamine at 28.5 μM
# Method: as §1
# [5] = system: HIF1α; test: HIF1α expression under hypoxia (FIG. 14)
# Source text: HIF1α is a transcription factor that enhances transcription of many metastasis related genes. The expression of HIF1α usually increases under hypoxic conditions.
# [6] = system: 1205Lu melanoma cells; test: IC50 of tirapazamine for melanoma cells; details: Homo sapiens
compound,measurement,setting,value
"Nc1n[n+]([O-])c2ccccc2[n+]1[O-] [TPZ, 3-Aminobenzo[e][1,2,4]triazine 1,4-dioxide]",cell toxicity (FIG. 13),[1]; hypoxia,induces cell toxicity only under hypoxic conditions
same,effect on cells (FIG. 12),[1]; normal oxygen conditions,no effect
same,change in viable cells,[2],decrease in viable cells
same,change in viable cells,[3],decrease in viable cells
same,change in viable cells,[4],decrease in viable cells
same,expression of HIF1α compared with control,[5]; cell line C,decrease
same,expression of HIF1α compared with control,[5]; cell line P,increase
same,expression of HIF1α compared with control,[5]; cell line T,increase
same,IC50,[6],28.5 µM
